From paper PMC4052943 (BioMed Research International, 2014)
Like-named read-outs stand apart in the source and are kept apart here.

Assays:
[1] = tested on: BP-induced DNA adducts (rat liver microsomes, st-DNA); test: Microsomal BP-DNA adducts, 32P-postlabeling; type: biochemical; conditions: for BP-induced DNA adducts: BP 1 μM, rat liver microsomes, st-DNA
Description: st-DNA (300 μg/mL) was preincubated with 50 mM Tris-HCl (pH 7.5), 1 mM MgCl2, 2.5 mM glucose-6-phosphate, 1 U/mL G6PDH, 0.5 mM NADP+, and α-naphthoflavone-induced rat liver microsomal proteins (1 mg/mL) in 1 mL for 10 min, in the presence of vehicle alone and PC and EA at 20 and 40 μM. […] The incubation was continued for another 30 min at 37°C and then reaction was terminated by the addition of EDTA and centrifugation (9,000 g; 10 min). DNA was isolated from the supernatant by removal of RNA and proteins by digestions with RNases A and T1 and proteinase K and a series of extractions with phenol, phenol: Sevag (chloroform : isoamyl alcohol, 24 : 1), and Sevag, followed by precipitation of the DNA with ethanol. The DNA concentration was estimated spectrophotometrically.
DNA adducts were analyzed by ^32P-postlabeling as described earlier. Briefly, 10 μg of DNA was digested with micrococcal nuclease and spleen phosphodiesterase (MN/SPD). Before further treatment with nuclease P1 to enrich DNA adducts, an aliquot was removed for evaluation of normal nucleotide levels. DNA adducts and normal nucleotides were labelled with [γ-^32P]ATP and T4 polynucleotide kinase. Labelled adducts were separated by multidirectional polyethyleneimine (PEI)-cellulose TLC using the following solvents: D1, 1.0 M sodium phosphate, pH 6.0; D3, 4 M lithium formate/7 M urea, pH 3.5; D4, 4 M ammonium hydroxide/isopropanol (1 : 0.9); and D5, 1.7 M sodium phosphate, pH 6.0. Normal nucleotides were resolved in 180 mM sodium phosphate, pH 6.0, by one-directional PEI-cellulose TLC. DNA adducts and normal nucleotides were detected and quantified by Packard InstantImager.

[2] = tested on: A549 cells; test: MTT cell proliferation assay; type: cell-based; conditions: Homo sapiens, A549, 48 h, read-out: inhibition of cells (antiproliferative activity, MTT)
Description: (§1) Inhibition of cell proliferation by PC and EA was measured with the MTT assay. Human lung cancer A549 and H1299 cells were obtained from ATCC (Manassas, VA, USA) and maintained in DMEM supplemented with 10% fetal calf serum (FCS), 1% penicillin/streptomycin. Cells were plated in 96-well culture plates (5 × 10^3 cells/well). After 24 h incubation, cells were treated with vehicle alone (0.1% DMSO) and PC and EA (12.5–200 μg/mL) extracts for 48 h. Then, the culture medium was replaced by 100 μL of fresh medium containing 0.5 mg/mL MTT, and the plates were incubated for 2 h at 37°C. The medium was then removed and was replaced by 200 μL of DMSO to solubilize the converted purple dye. The absorbance was measured with a spectrophotometer microplate reader at a wavelength of 570 nm.

[3] = tested on: H1299 cells; test: MTT cell proliferation assay; type: cell-based; conditions: Homo sapiens, NCI-H1299, 48 h, read-out: inhibition of cells (antiproliferative activity, MTT)
Description: as §1

[4] = tested on: Salmonella typhimurium TA100; test: Ames antimutagenicity assay (preincubation); conditions: for inhibition at 50 µM / inhibition at 100 µM / inhibition at 250 µM / inhibition at 500 µM: Salmonella enterica, TYPHIMURIUM;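 for all read-outs here: compound and mutagen preincubated together 30 min at 37°C before bacteria added, then plates incubated 48 h at 37°C, inhibition relative to mutagen-alone revertants after subtracting the negative control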
Description: (§2) In the preincubation experiment, test compounds and mutagen, each having a volume of 0.1 mL of varying concentrations, were preincubated at 37°C for 30 min and then 0.1 mL of 1 × 10^7 CFU/mL density of the bacterial culture was added, followed by the addition of 2.5 mL of top agar at 45°C (containing 0.5% NaCl and 0.6% agar) supplemented with 0.5 mM histidine-biotin. […] The combined solutions were vortexed and poured onto minimal glucose plates (40% glucose solution and Vogel Bonner medium). The plates were incubated at 37°C for 48 h and the numbers of histidine-independent revertants colonies were scored.
(§3) Survival of the bacteria was routinely monitored for each experiment. Parallel controls were run with compounds alone at all concentrations to test the possible toxicity. The concentrations of the test samples for investigating the antimutagenicity were 50, 100, 200, and 500 μM. […] All the test samples and mutagens were dissolved in DMSO (final conc., 0.01%). […] Plates were set up in triplicate for each concentration and the entire experiment was repeated three times. Inhibition of mutagenicity was expressed as percentage decrease of reverse mutation and calculated as (1) Percent inhibition=[(a−b)/(a−c)]×100, where a = number of histidine revertants induced by mutagen, b = number of histidine revertants induced by mutagen in the presence of test compound, and c = number of revertants induced in negative control.

[5] = tested on: Salmonella typhimurium TA102; test: Ames antimutagenicity assay (preincubation); conditions: for inhibition at 50 µM / inhibition at 100 µM / inhibition at 250 µM / inhibition at 500 µM: Salmonella enterica, TYPHIMURIUM;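 for all read-outs here: compound and mutagen preincubated 30 min at 37 °C before adding bacteria, His+ revertant colonies counted after 48 h at 37 °C, inhibition relative to mutagen-alone minus negative-control revertants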
Description: as §2, §3

O=C1O[C@H]2[C@@H]3OC(=O)c4cc(O)c(O)c(O)c4-c4c(O)c(O)c5oc(=O)c6c(c(O)c(O)c7oc(=O)c4c5c76)-c4c(cc(O)c(O)c4O)C(=O)OC[C@H]3OC(O)[C@@H]2OC(=O)c2cc(O)c(O)c(O)c2-c2c1cc(O)c(O)c2O (mixture of isomers) [Punicalagin]
BP-induced DNA adducts ([1]; 20 μM test compound): 42.9 ± 16 DNA adducts/10^8 nucleotides
BP-induced DNA adducts ([1]; 40 μM test compound): 7.2 ± 6.1 DNA adducts/10^8 nucleotides
inhibition of BP-induced DNA adducts ([1]; 40 μM, BP with rat liver microsomes, cofactors, DNA): 97%
inhibition at 50 µg/mL [2]: 34%
inhibition at 50 µg/mL [3]: 57%
inhibition at 50 µM ([4]; read-out: % inhibition of mutagenicity, TA 100, 50 μM + 2AF, S9): 22.4%
inhibition at 50 µM ([4]; read-out: % inhibition of mutagenicity, TA 100, 50 μM + BP, S9): 30.6%
inhibition at 50 µM ([4]; read-out: % inhibition of mutagenicity, TA 100, 50 μM + MMS, no S9): 13.8%
inhibition at 50 µM ([4]; read-out: % inhibition of mutagenicity, TA 100, 50 μM + NaN3, no S9): 11.3%
inhibition at 100 µM ([4]; read-out: % inhibition of mutagenicity, TA 100, 100 μM + 2AF, S9): 43.8%
inhibition at 100 µM ([4]; read-out: % inhibition of mutagenicity, TA 100, 100 μM + BP, S9): 48.3%
inhibition at 100 µM ([4]; read-out: % inhibition of mutagenicity, TA 100, 100 μM + MMS, no S9): 30.8%
inhibition at 100 µM ([4]; read-out: % inhibition of mutagenicity, TA 100, 100 μM + NaN3, no S9): 33.1%
inhibition at 250 µM ([4]; read-out: % inhibition of mutagenicity, TA 100, 250 μM + BP, S9): 64%
inhibition at 250 µM ([4]; read-out: % inhibition of mutagenicity, TA 100, 250 μM + MMS, no S9): 45.3%
inhibition at 250 µM ([4]; read-out: % inhibition of mutagenicity, TA 100, 250 μM + NaN3, no S9): 54.6%
inhibition at 500 µM ([4]; read-out: % inhibition of mutagenicity, TA 100, 500 μM + 2AF, S9): 83.1%
inhibition at 500 µM ([4]; read-out: % inhibition of mutagenicity, TA 100, 500 μM + BP, S9): 84.5%
inhibition at 500 µM ([4]; read-out: % inhibition of mutagenicity, TA 100, 500 μM + MMS, no S9): 66%
inhibition at 500 µM ([4]; read-out: % inhibition of mutagenicity, TA 100, 500 μM + NaN3, no S9): 74.3%
Number of His+ revertants colonies/plate ([4]; TA 100, 50 μM + 2AF, S9): 426.7 ± 28.3 colonies/plate
Number of His+ revertants colonies/plate ([4]; TA 100, 50 μM + BP, S9): 530.3 ± 26.4 colonies/plate
Number of His+ revertants colonies/plate ([4]; TA 100, 50 μM + MMS, no S9): 856.3 ± 13.1 colonies/plate
Number of His+ revertants colonies/plate ([4]; TA 100, 50 μM + NaN3, no S9): 342.0 ± 4.7 colonies/plate
Number of His+ revertants colonies/plate ([4]; TA 100, 100 μM + 2AF, S9): 358.0 ± 12.2 colonies/plate
Number of His+ revertants colonies/plate ([4]; TA 100, 100 μM + BP, S9): 442.7 ± 31.4 colonies/plate
Number of His+ revertants colonies/plate ([4]; TA 100, 100 μM + MMS, no S9): 722.0 ± 15.0 colonies/plate
Number of His+ revertants colonies/plate ([4]; TA 100, 100 μM + NaN3, no S9): 301.7 ± 7.8 colonies/plate
Number of His+ revertants colonies/plate ([4]; TA 100, 250 μM + BP, S9): 366.0 ± 20.2 colonies/plate
Number of His+ revertants colonies/plate ([4]; TA 100, 250 μM + MMS, no S9): 601.3 ± 12.3 colonies/plate
Number of His+ revertants colonies/plate ([4]; TA 100, 250 μM + NaN3, no S9): 254.3 ± 10.8 colonies/plate
Number of His+ revertants colonies/plate ([4]; TA 100, 500 μM + 2AF, S9): 245.0 ± 9.6 colonies/plate
Number of His+ revertants colonies/plate ([4]; TA 100, 500 μM + BP, S9): 270.7 ± 15.6 colonies/plate
Number of His+ revertants colonies/plate ([4]; TA 100, 500 μM + MMS, no S9): 451.7 ± 15.6 colonies/plate
Number of His+ revertants colonies/plate ([4]; TA 100, 500 μM + NaN3, no S9): 232.3 ± 9.4 colonies/plate
inhibition at 50 µM ([5]; read-out: % inhibition of mutagenicity, TA 102, 50 μM + 2AF, S9): 38.7%
inhibition at 50 µM ([5]; read-out: % inhibition of mutagenicity, TA 102, 50 μM + BP, S9): 15.8%
inhibition at 50 µM ([5]; read-out: % inhibition of mutagenicity, TA 102, 50 μM + MMS, no S9): 17.5%
inhibition at 50 µM ([5]; read-out: % inhibition of mutagenicity, TA 102, 50 μM + NaN3, no S9): 18%
inhibition at 100 µM ([5]; read-out: % inhibition of mutagenicity, TA 102, 100 μM + 2AF, S9): 54.8%
inhibition at 100 µM ([5]; read-out: % inhibition of mutagenicity, TA 102, 100 μM + BP, S9): 28%
inhibition at 100 µM ([5]; read-out: % inhibition of mutagenicity, TA 102, 100 μM + MMS, no S9): 30.8%
inhibition at 100 µM ([5]; read-out: % inhibition of mutagenicity, TA 102, 100 μM + NaN3, no S9): 17.6%
inhibition at 250 µM ([5]; read-out: % inhibition of mutagenicity, TA 102, 250 μM + BP, S9): 58.6%
inhibition at 250 µM ([5]; read-out: % inhibition of mutagenicity, TA 102, 250 μM + MMS, no S9): 50.8%
inhibition at 250 µM ([5]; read-out: % inhibition of mutagenicity, TA 102, 250 μM + NaN3, no S9): 42.2%
inhibition at 500 µM ([5]; read-out: % inhibition of mutagenicity, TA 102, 500 μM + 2AF, S9): 81.6%
inhibition at 500 µM ([5]; read-out: % inhibition of mutagenicity, TA 102, 500 μM + BP, S9): 76.2%
inhibition at 500 µM ([5]; read-out: % inhibition of mutagenicity, TA 102, 500 μM + MMS, no S9): 74.1%
inhibition at 500 µM ([5]; read-out: % inhibition of mutagenicity, TA 102, 500 μM + NaN3, no S9): 59.8%
Number of His+ revertants colonies/plate ([5]; TA 102, 50 μM + 2AF, S9): 1028.0 ± 21.8 colonies/plate
Number of His+ revertants colonies/plate ([5]; TA 102, 50 μM + BP, S9): 635.0 ± 23.0 colonies/plate
Number of His+ revertants colonies/plate ([5]; TA 102, 50 μM + MMS, no S9): 1072.0 ± 10.7 colonies/plate
Number of His+ revertants colonies/plate ([5]; TA 102, 50 μM + NaN3, no S9): 346.3 ± 23.5 colonies/plate
Number of His+ revertants colonies/plate ([5]; TA 102, 100 μM + 2AF, S9): 854.0 ± 31.6 colonies/plate
Number of His+ revertants colonies/plate ([5]; TA 102, 100 μM + BP, S9): 595.0 ± 28.8 colonies/plate
Number of His+ revertants colonies/plate ([5]; TA 102, 100 μM + MMS, no S9): 942.0 ± 16.2 colonies/plate
Number of His+ revertants colonies/plate ([5]; TA 102, 100 μM + NaN3, no S9): 341.0 ± 19.1 colonies/plate
Number of His+ revertants colonies/plate ([5]; TA 102, 250 μM + BP, S9): 496.0 ± 17.4 colonies/plate
Number of His+ revertants colonies/plate ([5]; TA 102, 250 μM + MMS, no S9): 738.0 ± 14.8 colonies/plate
Number of His+ revertants colonies/plate ([5]; TA 102, 250 μM + NaN3, no S9): 310.7 ± 16.0 colonies/plate
Number of His+ revertants colonies/plate ([5]; TA 102, 500 μM + 2AF, S9): 563.0 ± 29.4 colonies/plate
Number of His+ revertants colonies/plate ([5]; TA 102, 500 μM + BP, S9): 438.0 ± 19.5 colonies/plate
Number of His+ revertants colonies/plate ([5]; TA 102, 500 μM + MMS, no S9): 509.0 ± 19.7 colonies/plate
